From publication PMC2697668 (Organic letters, 2009)

Target: recombinant yeast Hsp90
Test: ATPase inhibition assay
Type: biochemical, Saccharomyces cerevisiae
Conditions: read-out: ATPase; incubated with ATP

Work on `C[C@@H]1C[C@H]2O[C@@H]2/C=C\C=C\C(=O)Cc2c(Cl)c(O)cc(O)c2C(=O)O1` [RDC] yielded an IC50 of 400 nM.
